{"source": "PubChem BioAssay (NCI)", "assay_in_all_cases": "NCI anticancer screen, dose series, 48 h", "key": {"[1]": {"system": "SK-MEL-28 melanoma"}, "[2]": {"system": "HT29 colon"}, "[3]": {"system": "DMS 273 small cell lung"}, "[4]": {"system": "SN12C renal"}, "[5]": {"system": "COLO 205 colon"}, "[6]": {"system": "M19-MEL melanoma"}, "[7]": {"system": "SK-MEL-5 melanoma"}, "[8]": {"system": "XF 498 CNS"}, "[9]": {"system": "SNB-75 CNS"}, "[10]": {"system": "ACHN renal"}, "[11]": {"system": "OVCAR-4 ovarian"}, "[12]": {"system": "LOX IMVI melanoma"}, "[13]": {"system": "U251 CNS"}, "[14]": {"system": "UACC-257 melanoma"}, "[15]": {"system": "NCI-H460 lung"}, "[16]": {"system": "K-562 leukemia"}, "[17]": {"system": "TK-10 renal"}, "[18]": {"system": "MOLT-4 leukemia"}, "[19]": {"system": "DMS 114 small cell lung"}, "[20]": {"system": "RXF 393 renal"}, "[21]": {"system": "SNB-78 CNS"}, "[22]": {"system": "M14 melanoma"}, "[23]": {"system": "SW-620 colon"}, "[24]": {"system": "EKVX NSCLC"}, "[25]": {"system": "IGROV1 ovarian"}, "[26]": {"system": "SF-295 CNS"}, "[27]": {"system": "LXFL 529 NSCLC"}, "[28]": {"system": "HL-60(TB) leukemia"}, "[29]": {"system": "A498 renal"}, "[30]": {"system": "KM20L2 colon"}, "[31]": {"system": "UACC-62 melanoma"}, "[32]": {"system": "NCI-H23 lung"}, "[33]": {"system": "CCRF-CEM leukemia"}, "[34]": {"system": "OVCAR-8 ovarian"}, "[35]": {"system": "RPMI-8226 leukemia"}, "[36]": {"system": "HCT-15 colon"}, "[37]": {"system": "HOP-18 NSCLC"}, "[38]": {"system": "HCT-116 colon"}, "[39]": {"system": "SK-OV-3 ovarian"}, "[40]": {"system": "A549 NSCLC"}, "[41]": {"system": "SNB-19 CNS"}, "[42]": {"system": "OVCAR-3 ovarian"}, "[43]": {"system": "SF-539 CNS"}, "[44]": {"system": "SF-268 CNS"}, "[45]": {"system": "OVCAR-5 ovarian"}, "[46]": {"system": "CAKI-1 renal"}, "[47]": {"system": "NCI-H522 lung"}, "[48]": {"system": "KM12 colon"}, "[49]": {"system": "SK-MEL-2 melanoma"}, "[50]": {"system": "HOP-92 NSCLC"}, "[51]": {"system": "UO-31 renal"}, "[52]": {"system": "786-0 renal"}, "[53]": {"system": "MALME-3M melanoma"}, "[54]": {"system": "NCI-H226 lung"}, "[55]": {"system": "HCC-2998 colon"}, "[56]": {"system": "DLD-1 colon"}, "[57]": {"system": "HOP-62 NSCLC"}}, "note": "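Five compound concentrations were applied to cells in 96-well plates for 48 hours; endpoints were derived by simple linear interpolation of the resulting dose-response curve. At the TGI there is no net growth.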"}
{"molecule": "CCOC(=O)COc1ccc(OC)c2c1C(=O)CCC2", "values": [{"measurement": "TGI", "setting": "[1]", "value": "> 100", "unit": "µM"}, {"measurement": "TGI", "setting": "[2]", "value": "> 100", "unit": "µM"}, {"measurement": "TGI", "setting": "[3]", "value": "> 100", "unit": "µM"}, {"measurement": "TGI", "setting": "[4]", "value": "> 100", "unit": "µM"}, {"measurement": "TGI", "setting": "[5]", "value": "> 100", "unit": "µM"}, {"measurement": "TGI", "setting": "[6]", "value": "> 100", "unit": "µM"}, {"measurement": "TGI", "setting": "[7]", "value": "> 100", "unit": "µM"}, {"measurement": "TGI", "setting": "[8]", "value": "> 100", "unit": "µM"}, {"measurement": "TGI", "setting": "[9]", "value": "> 100", "unit": "µM"}, {"measurement": "TGI", "setting": "[10]", "value": "> 100", "unit": "µM"}, {"measurement": "TGI", "setting": "[11]", "value": "> 100", "unit": "µM"}, {"measurement": "TGI", "setting": "[12]", "value": "> 100", "unit": "µM"}, {"measurement": "TGI", "setting": "[13]", "value": "> 100", "unit": "µM"}, {"measurement": "TGI", "setting": "[14]", "value": "> 100", "unit": "µM"}, {"measurement": "TGI", "setting": "[15]", "value": "> 100", "unit": "µM"}, {"measurement": "TGI", "setting": "[16]", "value": "> 100", "unit": "µM"}, {"measurement": "TGI", "setting": "[17]", "value": "> 100", "unit": "µM"}, {"measurement": "TGI", "setting": "[18]", "value": "> 100", "unit": "µM"}, {"measurement": "TGI", "setting": "[19]", "value": "> 100", "unit": "µM"}, {"measurement": "TGI", "setting": "[20]", "value": "> 100", "unit": "µM"}, {"measurement": "TGI", "setting": "[21]", "value": "> 100", "unit": "µM"}, {"measurement": "TGI", "setting": "[22]", "value": "> 100", "unit": "µM"}, {"measurement": "TGI", "setting": "[23]", "value": "> 100", "unit": "µM"}, {"measurement": "TGI", "setting": "[24]", "value": "> 100", "unit": "µM"}, {"measurement": "TGI", "setting": "[25]", "value": "> 100", "unit": "µM"}, {"measurement": "TGI", "setting": "[26]", "value": "> 100", "unit": "µM"}, {"measurement": "TGI", "setting": "[27]", "value": "> 100", "unit": "µM"}, {"measurement": "TGI", "setting": "[28]", "value": "> 100", "unit": "µM"}, {"measurement": "TGI", "setting": "[29]", "value": "> 100", "unit": "µM"}, {"measurement": "TGI", "setting": "[30]", "value": "> 100", "unit": "µM"}, {"measurement": "TGI", "setting": "[31]", "value": "> 100", "unit": "µM"}, {"measurement": "TGI", "setting": "[32]", "value": "> 100", "unit": "µM"}, {"measurement": "TGI", "setting": "[33]", "value": "> 100", "unit": "µM"}, {"measurement": "TGI", "setting": "[34]", "value": "> 100", "unit": "µM"}, {"measurement": "TGI", "setting": "[35]", "value": "> 100", "unit": "µM"}, {"measurement": "TGI", "setting": "[36]", "value": "> 100", "unit": "µM"}, {"measurement": "TGI", "setting": "[37]", "value": "> 100", "unit": "µM"}, {"measurement": "TGI", "setting": "[38]", "value": "> 100", "unit": "µM"}, {"measurement": "TGI", "setting": "[39]", "value": "> 100", "unit": "µM"}, {"measurement": "TGI", "setting": "[40]", "value": "> 100", "unit": "µM"}, {"measurement": "TGI", "setting": "[41]", "value": "> 100", "unit": "µM"}, {"measurement": "TGI", "setting": "[42]", "value": "> 100", "unit": "µM"}, {"measurement": "TGI", "setting": "[43]", "value": "> 100", "unit": "µM"}]}
{"molecule": "CCN(C(C)=N)c1ccccc1", "values": [{"measurement": "TGI", "setting": "[44]", "value": "> 100", "unit": "µM"}, {"measurement": "TGI", "setting": "[45]", "value": "> 100", "unit": "µM"}, {"measurement": "TGI", "setting": "[1]", "value": "> 100", "unit": "µM"}, {"measurement": "TGI", "setting": "[46]", "value": "> 100", "unit": "µM"}, {"measurement": "TGI", "setting": "[47]", "value": "> 100", "unit": "µM"}, {"measurement": "TGI", "setting": "[48]", "value": "> 100", "unit": "µM"}, {"measurement": "TGI", "setting": "[4]", "value": "> 100", "unit": "µM"}, {"measurement": "TGI", "setting": "[5]", "value": "> 100", "unit": "µM"}, {"measurement": "TGI", "setting": "[6]", "value": "> 100", "unit": "µM"}, {"measurement": "TGI", "setting": "[49]", "value": "> 100", "unit": "µM"}, {"measurement": "TGI", "setting": "[7]", "value": "> 100", "unit": "µM"}, {"measurement": "TGI", "setting": "[50]", "value": "> 100", "unit": "µM"}, {"measurement": "TGI", "setting": "[8]", "value": "> 100", "unit": "µM"}, {"measurement": "TGI", "setting": "[9]", "value": "> 100", "unit": "µM"}, {"measurement": "TGI", "setting": "[10]", "value": "> 100", "unit": "µM"}, {"measurement": "TGI", "setting": "[11]", "value": "> 100", "unit": "µM"}, {"measurement": "TGI", "setting": "[12]", "value": "> 100", "unit": "µM"}, {"measurement": "TGI", "setting": "[51]", "value": "> 100", "unit": "µM"}, {"measurement": "TGI", "setting": "[13]", "value": "> 100", "unit": "µM"}, {"measurement": "TGI", "setting": "[14]", "value": 44.3, "unit": "µM"}, {"measurement": "TGI", "setting": "[15]", "value": "> 100", "unit": "µM"}, {"measurement": "TGI", "setting": "[16]", "value": "> 100", "unit": "µM"}, {"measurement": "TGI", "setting": "[17]", "value": "> 100", "unit": "µM"}, {"measurement": "TGI", "setting": "[18]", "value": "> 100", "unit": "µM"}, {"measurement": "TGI", "setting": "[19]", "value": "> 100", "unit": "µM"}, {"measurement": "TGI", "setting": "[20]", "value": "> 100", "unit": "µM"}, {"measurement": "TGI", "setting": "[21]", "value": "> 100", "unit": "µM"}, {"measurement": "TGI", "setting": "[52]", "value": "> 100", "unit": "µM"}, {"measurement": "TGI", "setting": "[22]", "value": "> 100", "unit": "µM"}, {"measurement": "TGI", "setting": "[53]", "value": "> 100", "unit": "µM"}, {"measurement": "TGI", "setting": "[23]", "value": "> 100", "unit": "µM"}, {"measurement": "TGI", "setting": "[24]", "value": "> 100", "unit": "µM"}, {"measurement": "TGI", "setting": "[25]", "value": "> 100", "unit": "µM"}, {"measurement": "TGI", "setting": "[26]", "value": "> 100", "unit": "µM"}, {"measurement": "TGI", "setting": "[54]", "value": "> 100", "unit": "µM"}, {"measurement": "TGI", "setting": "[27]", "value": "> 100", "unit": "µM"}, {"measurement": "TGI", "setting": "[28]", "value": "> 100", "unit": "µM"}, {"measurement": "TGI", "setting": "[29]", "value": "> 100", "unit": "µM"}, {"measurement": "TGI", "setting": "[30]", "value": "> 100", "unit": "µM"}, {"measurement": "TGI", "setting": "[55]", "value": "> 100", "unit": "µM"}, {"measurement": "TGI", "setting": "[56]", "value": "> 100", "unit": "µM"}, {"measurement": "TGI", "setting": "[31]", "value": "> 100", "unit": "µM"}, {"measurement": "TGI", "setting": "[32]", "value": "> 100", "unit": "µM"}, {"measurement": "TGI", "setting": "[33]", "value": "> 100", "unit": "µM"}, {"measurement": "TGI", "setting": "[34]", "value": "> 100", "unit": "µM"}, {"measurement": "TGI", "setting": "[35]", "value": "> 100", "unit": "µM"}, {"measurement": "TGI", "setting": "[36]", "value": "> 100", "unit": "µM"}, {"measurement": "TGI", "setting": "[37]", "value": "> 100", "unit": "µM"}, {"measurement": "TGI", "setting": "[38]", "value": "> 100", "unit": "µM"}, {"measurement": "TGI", "setting": "[39]", "value": "> 100", "unit": "µM"}, {"measurement": "TGI", "setting": "[40]", "value": "> 100", "unit": "µM"}, {"measurement": "TGI", "setting": "[41]", "value": "> 100", "unit": "µM"}, {"measurement": "TGI", "setting": "[42]", "value": "> 100", "unit": "µM"}, {"measurement": "TGI", "setting": "[43]", "value": "> 100", "unit": "µM"}, {"measurement": "TGI", "setting": "[57]", "value": "> 100", "unit": "µM"}]}
